Experimental data published in paper PMC8800111 (The Journal of Biological Chemistry, 2021).
Read-outs that look alike come from different tables or passages of the source.

Key:
Format in all cases: cell-based
[1] = biological target: proteins of U3A human fibrosarcoma cells (4462 proteins detected) (Homo sapiens, UniProt O15498); settings: protein YKT6; U3A, 10 μM, 2 h
[2] = biological target: proteins of U3A human fibrosarcoma cells (4462 proteins detected) (Homo sapiens, UniProt Q6N063); settings: protein OGFOD2; U3A cells
[3] = biological target: proteins of U3A human fibrosarcoma cells (4462 proteins detected) (Homo sapiens, UniProt Q9UJ41); settings: protein RABGEF1; U3A cells
[4] = biological target: proteins of U3A human fibrosarcoma cells (4462 proteins detected) (Homo sapiens, UniProt P48507); settings: protein GCLM; U3A cells
[5] = biological target: proteins of U3A human fibrosarcoma cells (4462 proteins detected) (Homo sapiens, UniProt Q6P2Q9); settings: protein PRPF8; soluble abundance after heat, U3A cells
[6] = biological target: proteins of U3A human fibrosarcoma cells (4462 proteins detected) (Homo sapiens, UniProt Q86UA6); settings: protein RPAIN, U3A cells
[7] = biological target: proteins of U3A human fibrosarcoma cells (4462 proteins detected) (Homo sapiens, UniProt Q99459); settings: protein CDC5L; U3A cells
[8] = biological target: proteins of U3A human fibrosarcoma cells (4462 proteins detected) (Homo sapiens, UniProt P28290); settings: protein SSFA2; U3A, 10 μM, 2 h
[9] = biological target: proteins of U3A human fibrosarcoma cells (4462 proteins detected) (Homo sapiens, UniProt Q13263); settings: protein TRIM28; U3A cells
[10] = biological target: proteins of U3A human fibrosarcoma cells (4462 proteins detected) (Homo sapiens, UniProt Q9UHL4); settings: protein DPP7; U3A cells
[11] = test system: proteins of U3A human fibrosarcoma cells (4462 proteins detected)
[12] = biological target: proteins of U3A human fibrosarcoma cells (4462 proteins detected) (Homo sapiens, UniProt O00567); settings: protein NOP56; U3A cells
[13] = biological target: proteins of U3A human fibrosarcoma cells (4462 proteins detected) (Homo sapiens, UniProt Q9NP77); settings: protein SSU72, U3A cells
[14] = biological target: proteins of U3A human fibrosarcoma cells (4462 proteins detected) (Homo sapiens, UniProt Q9NYZ3); settings: protein GTSE1; U3A cells
[15] = biological target: proteins of U3A human fibrosarcoma cells (4462 proteins detected) (Homo sapiens, UniProt Q9UNZ2); settings: protein NSFL1C, U3A cells
[16] = biological target: proteins of U3A human fibrosarcoma cells (4462 proteins detected) (Homo sapiens, UniProt P08174); settings: protein CD55; U3A cells
[17] = biological target: proteins of U3A human fibrosarcoma cells (4462 proteins detected) (Homo sapiens, UniProt Q495W5); settings: protein FUT11; U3A cells
[18] = biological target: proteins of U3A human fibrosarcoma cells (4462 proteins detected) (Homo sapiens, UniProt Q9Y5N6); settings: protein ORC6; U3A cells
[19] = biological target: proteins of U3A human fibrosarcoma cells (4462 proteins detected) (Homo sapiens, UniProt Q9NX58); settings: protein LYAR; U3A cells
[20] = biological target: proteins of U3A human fibrosarcoma cells (4462 proteins detected) (Homo sapiens, UniProt P49841); settings: protein GSK3B; soluble abundance after heat, U3A cells
[21] = biological target: proteins of U3A human fibrosarcoma cells (4462 proteins detected) (Homo sapiens, UniProt P48637); settings: protein GSS; soluble abundance after heat, U3A cells
[22] = biological target: proteins of U3A human fibrosarcoma cells (4462 proteins detected) (Homo sapiens, UniProt Q9P000); settings: protein COMMD9; U3A cells
[23] = biological target: proteins of U3A human fibrosarcoma cells (4462 proteins detected) (Homo sapiens, UniProt Q12905); settings: protein ILF2; U3A cells
[24] = biological target: proteins of U3A human fibrosarcoma cells (4462 proteins detected) (Homo sapiens, UniProt Q9NVR2); settings: protein INTS10; U3A cells
[25] = biological target: proteins of U3A human fibrosarcoma cells (4462 proteins detected) (Homo sapiens, UniProt O95104); settings: protein SCAF4; U3A cells
[26] = biological target: proteins of U3A human fibrosarcoma cells (4462 proteins detected) (Homo sapiens, UniProt P25325); settings: protein MPST, U3A cells
[27] = biological target: proteins of U3A human fibrosarcoma cells (4462 proteins detected) (Homo sapiens, UniProt P54709); settings: protein ATP1B3; U3A, 10 μM, 2 h
Sequence of proteins of U3A human fibrosarcoma cells (4462 proteins detected) (Homo sapiens, UniProt P54709) (P54709 whole entry): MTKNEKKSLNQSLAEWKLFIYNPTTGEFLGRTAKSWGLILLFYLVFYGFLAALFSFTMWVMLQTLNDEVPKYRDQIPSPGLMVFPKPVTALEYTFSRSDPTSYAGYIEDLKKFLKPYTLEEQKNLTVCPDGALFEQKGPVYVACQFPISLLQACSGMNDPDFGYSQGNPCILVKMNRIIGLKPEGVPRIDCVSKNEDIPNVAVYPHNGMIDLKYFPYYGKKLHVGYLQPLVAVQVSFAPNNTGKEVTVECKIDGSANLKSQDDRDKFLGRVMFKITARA

Sequence of proteins of U3A human fibrosarcoma cells (4462 proteins detected) (Homo sapiens, UniProt Q9P000) (Q9P000 whole entry): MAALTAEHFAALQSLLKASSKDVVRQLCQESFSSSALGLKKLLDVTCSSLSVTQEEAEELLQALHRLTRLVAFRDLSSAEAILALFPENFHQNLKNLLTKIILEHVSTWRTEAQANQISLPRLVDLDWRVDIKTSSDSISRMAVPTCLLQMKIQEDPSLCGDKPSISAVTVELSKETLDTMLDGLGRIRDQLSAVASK
Sequence of proteins of U3A human fibrosarcoma cells (4462 proteins detected) (Homo sapiens, UniProt P48507) (P48507 whole entry): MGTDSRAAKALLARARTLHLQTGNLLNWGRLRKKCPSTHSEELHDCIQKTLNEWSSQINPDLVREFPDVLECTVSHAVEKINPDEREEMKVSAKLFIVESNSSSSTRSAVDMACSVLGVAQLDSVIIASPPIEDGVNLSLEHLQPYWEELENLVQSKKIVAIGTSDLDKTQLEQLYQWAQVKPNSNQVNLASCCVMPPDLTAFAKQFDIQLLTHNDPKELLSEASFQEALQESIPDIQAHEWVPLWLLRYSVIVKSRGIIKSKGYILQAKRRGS
Sequence of proteins of U3A human fibrosarcoma cells (4462 proteins detected) (Homo sapiens, UniProt Q9NP77) (Q9NP77 whole entry): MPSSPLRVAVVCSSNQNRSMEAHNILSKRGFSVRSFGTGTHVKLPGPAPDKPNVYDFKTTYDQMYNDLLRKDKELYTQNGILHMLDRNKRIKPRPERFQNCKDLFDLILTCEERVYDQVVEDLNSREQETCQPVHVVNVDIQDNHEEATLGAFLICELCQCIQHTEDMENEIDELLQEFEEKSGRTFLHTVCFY
Sequence of proteins of U3A human fibrosarcoma cells (4462 proteins detected) (Homo sapiens, UniProt Q99459) (Q99459 whole entry): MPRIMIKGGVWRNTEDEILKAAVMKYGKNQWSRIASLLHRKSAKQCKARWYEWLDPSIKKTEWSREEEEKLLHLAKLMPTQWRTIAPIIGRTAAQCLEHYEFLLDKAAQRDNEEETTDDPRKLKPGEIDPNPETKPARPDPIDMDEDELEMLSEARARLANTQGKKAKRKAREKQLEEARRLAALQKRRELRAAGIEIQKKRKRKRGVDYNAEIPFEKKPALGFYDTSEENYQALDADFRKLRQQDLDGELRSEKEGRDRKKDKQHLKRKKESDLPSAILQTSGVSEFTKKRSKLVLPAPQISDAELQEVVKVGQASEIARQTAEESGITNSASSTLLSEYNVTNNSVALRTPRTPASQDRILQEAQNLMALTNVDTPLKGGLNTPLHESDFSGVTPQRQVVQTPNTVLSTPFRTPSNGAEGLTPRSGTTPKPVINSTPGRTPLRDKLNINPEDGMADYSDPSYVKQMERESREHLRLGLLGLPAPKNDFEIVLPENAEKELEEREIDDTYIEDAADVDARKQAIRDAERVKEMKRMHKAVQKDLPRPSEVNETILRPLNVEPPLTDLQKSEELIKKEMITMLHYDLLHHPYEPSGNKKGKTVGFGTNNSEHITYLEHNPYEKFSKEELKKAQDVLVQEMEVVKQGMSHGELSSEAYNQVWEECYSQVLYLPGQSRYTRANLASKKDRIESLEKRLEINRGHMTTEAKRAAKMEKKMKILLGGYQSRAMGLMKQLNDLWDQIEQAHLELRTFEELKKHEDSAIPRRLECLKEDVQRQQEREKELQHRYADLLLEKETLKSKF
Sequence of proteins of U3A human fibrosarcoma cells (4462 proteins detected) (Homo sapiens, UniProt Q9NX58) (Q9NX58 whole entry): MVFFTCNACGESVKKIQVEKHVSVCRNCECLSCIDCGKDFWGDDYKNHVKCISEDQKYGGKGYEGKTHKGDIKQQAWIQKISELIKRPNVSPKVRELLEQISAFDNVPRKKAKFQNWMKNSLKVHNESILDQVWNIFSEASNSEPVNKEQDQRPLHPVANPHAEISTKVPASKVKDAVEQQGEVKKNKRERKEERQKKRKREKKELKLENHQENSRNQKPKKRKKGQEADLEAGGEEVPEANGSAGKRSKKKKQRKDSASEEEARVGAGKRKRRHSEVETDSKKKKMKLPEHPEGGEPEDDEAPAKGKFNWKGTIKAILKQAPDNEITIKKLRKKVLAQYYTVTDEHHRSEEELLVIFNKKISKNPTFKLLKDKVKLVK
Sequence of proteins of U3A human fibrosarcoma cells (4462 proteins detected) (Homo sapiens, UniProt Q9UNZ2) (Q9UNZ2 whole entry): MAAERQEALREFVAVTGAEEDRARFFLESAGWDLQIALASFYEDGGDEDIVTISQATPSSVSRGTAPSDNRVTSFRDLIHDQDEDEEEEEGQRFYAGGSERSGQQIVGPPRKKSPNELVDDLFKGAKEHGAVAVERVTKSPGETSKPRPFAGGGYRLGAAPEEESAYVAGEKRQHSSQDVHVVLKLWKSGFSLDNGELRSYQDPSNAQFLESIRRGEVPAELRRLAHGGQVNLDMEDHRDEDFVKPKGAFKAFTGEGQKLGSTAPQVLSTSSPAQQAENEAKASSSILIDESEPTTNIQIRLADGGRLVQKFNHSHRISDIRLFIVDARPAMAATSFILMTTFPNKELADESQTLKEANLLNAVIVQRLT
Sequence of proteins of U3A human fibrosarcoma cells (4462 proteins detected) (Homo sapiens, UniProt Q9NYZ3) (Q9NYZ3 whole entry): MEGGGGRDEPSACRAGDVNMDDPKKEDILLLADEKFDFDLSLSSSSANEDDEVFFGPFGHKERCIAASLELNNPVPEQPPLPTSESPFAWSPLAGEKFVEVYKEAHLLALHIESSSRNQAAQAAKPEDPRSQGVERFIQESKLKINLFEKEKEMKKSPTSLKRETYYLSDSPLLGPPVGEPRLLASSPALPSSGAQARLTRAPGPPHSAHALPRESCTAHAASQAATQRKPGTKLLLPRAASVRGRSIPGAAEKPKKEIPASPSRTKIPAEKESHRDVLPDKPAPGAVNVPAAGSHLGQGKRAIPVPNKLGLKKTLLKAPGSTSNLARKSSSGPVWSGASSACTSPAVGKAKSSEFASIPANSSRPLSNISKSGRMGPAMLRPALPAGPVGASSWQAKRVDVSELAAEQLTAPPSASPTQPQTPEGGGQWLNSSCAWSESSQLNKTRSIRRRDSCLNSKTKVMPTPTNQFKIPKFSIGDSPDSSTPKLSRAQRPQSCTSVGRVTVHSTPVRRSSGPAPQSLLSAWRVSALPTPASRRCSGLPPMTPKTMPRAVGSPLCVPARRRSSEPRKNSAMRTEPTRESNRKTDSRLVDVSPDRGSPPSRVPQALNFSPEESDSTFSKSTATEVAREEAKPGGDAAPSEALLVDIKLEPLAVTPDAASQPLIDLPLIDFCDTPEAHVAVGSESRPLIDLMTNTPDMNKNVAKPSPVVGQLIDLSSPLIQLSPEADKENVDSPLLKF
Sequence of proteins of U3A human fibrosarcoma cells (4462 proteins detected) (Homo sapiens, UniProt P08174) (P08174 35-381): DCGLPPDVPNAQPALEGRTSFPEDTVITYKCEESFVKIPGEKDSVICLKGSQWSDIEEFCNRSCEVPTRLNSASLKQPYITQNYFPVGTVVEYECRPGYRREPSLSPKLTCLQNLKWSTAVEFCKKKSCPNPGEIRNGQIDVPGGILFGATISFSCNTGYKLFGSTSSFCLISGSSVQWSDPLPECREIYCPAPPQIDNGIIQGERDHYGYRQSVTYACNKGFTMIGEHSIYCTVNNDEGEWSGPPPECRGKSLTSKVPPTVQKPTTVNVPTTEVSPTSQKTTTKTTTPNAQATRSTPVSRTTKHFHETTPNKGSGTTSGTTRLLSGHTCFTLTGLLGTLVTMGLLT
Sequence of proteins of U3A human fibrosarcoma cells (4462 proteins detected) (Homo sapiens, UniProt Q13263) (Q13263 whole entry): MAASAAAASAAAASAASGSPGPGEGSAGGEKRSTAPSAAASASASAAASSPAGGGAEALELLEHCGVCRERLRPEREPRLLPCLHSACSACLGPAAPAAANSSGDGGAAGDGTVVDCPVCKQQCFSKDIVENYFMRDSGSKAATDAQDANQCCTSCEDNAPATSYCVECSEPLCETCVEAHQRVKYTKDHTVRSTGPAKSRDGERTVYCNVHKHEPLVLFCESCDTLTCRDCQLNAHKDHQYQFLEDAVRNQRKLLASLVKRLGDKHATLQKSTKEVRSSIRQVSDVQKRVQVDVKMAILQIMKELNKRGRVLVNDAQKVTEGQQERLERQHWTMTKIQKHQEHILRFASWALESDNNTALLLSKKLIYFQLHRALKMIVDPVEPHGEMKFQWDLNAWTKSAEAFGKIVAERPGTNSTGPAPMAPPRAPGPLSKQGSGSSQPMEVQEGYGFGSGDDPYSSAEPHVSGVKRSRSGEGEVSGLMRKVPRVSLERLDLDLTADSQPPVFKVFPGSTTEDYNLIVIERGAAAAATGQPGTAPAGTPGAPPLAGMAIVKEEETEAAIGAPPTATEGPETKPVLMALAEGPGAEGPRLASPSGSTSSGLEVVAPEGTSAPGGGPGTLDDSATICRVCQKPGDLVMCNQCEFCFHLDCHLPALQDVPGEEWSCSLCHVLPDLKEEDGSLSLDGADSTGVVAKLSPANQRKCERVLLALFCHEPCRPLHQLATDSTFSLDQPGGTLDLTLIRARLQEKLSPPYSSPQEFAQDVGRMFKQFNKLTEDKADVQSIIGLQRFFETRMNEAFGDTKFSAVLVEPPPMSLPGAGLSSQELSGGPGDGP
Sequence of proteins of U3A human fibrosarcoma cells (4462 proteins detected) (Homo sapiens, UniProt Q86UA6) (Q86UA6 whole entry): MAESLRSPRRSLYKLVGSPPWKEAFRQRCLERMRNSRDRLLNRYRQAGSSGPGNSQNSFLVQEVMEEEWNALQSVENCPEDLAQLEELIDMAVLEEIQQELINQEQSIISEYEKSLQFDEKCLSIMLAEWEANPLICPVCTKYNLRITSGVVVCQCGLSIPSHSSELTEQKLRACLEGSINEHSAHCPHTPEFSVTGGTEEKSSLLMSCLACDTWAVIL
Sequence of proteins of U3A human fibrosarcoma cells (4462 proteins detected) (Homo sapiens, UniProt O15498) (O15498 whole entry): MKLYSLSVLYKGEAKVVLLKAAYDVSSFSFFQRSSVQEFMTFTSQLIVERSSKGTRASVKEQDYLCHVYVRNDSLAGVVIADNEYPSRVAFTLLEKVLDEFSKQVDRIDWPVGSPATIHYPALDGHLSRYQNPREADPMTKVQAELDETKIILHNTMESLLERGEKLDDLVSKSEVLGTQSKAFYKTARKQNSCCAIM

CCc1nc(N)nc(N)c1-c1ccc(Cl)cc1 [pyrimethamine]
Log2 (PYR/DMSO), YKT6 [1]: 0.27 | Log2 (PYR/DMSO) [2]: 0.16 | Log2 (PYR/DMSO) [3]: 0.20 | Log2 (PYR/DMSO) [4]: 0.20 | Log2 (PYR/DMSO) [5]: 0.14 | Log2 (PYR/DMSO) [6]: -0.04 | Log2 (PYR/DMSO) [7]: 0.18 | Log2 (PYR/DMSO), SSFA2 [8]: -0.15 | Log2 (PYR/DMSO) [9]: 0.16 | Log2 (PYR/DMSO) [10]: 0.22 | Log2 (PYR/DMSO) ([11]; protein AGO2, AGO1, AGO3, AGO4, soluble abundance after heat, U3A cells): 0.14 | Log2 (PYR/DMSO), ANXA8L1; ANXA8L2; ANXA8 ([11]; protein ANXA8L1, ANXA8L2, ANXA8, U3A, 10 μM, 2 h): -0.40 | Log2 (PYR/DMSO), ATP2A2; ATP2A1; ATP2A3 ([11]; protein ATP2A2, ATP2A1, ATP2A3, U3A, 10 μM, 2 h): 0.28 | Log2 (PYR/DMSO) ([11]; protein CUX1, U3A cells): 0.20 | Log2 (PYR/DMSO) ([11]; protein DHRS4, DHRS4L1, soluble abundance after heat, U3A cells): 0.13 | Log2 (PYR/DMSO) ([11]; protein EIF3C, EIF3CL, U3A cells): 0.18 | Log2 (PYR/DMSO) ([11]; protein Em:AP000351.3, GSTT2, GSTT2B, U3A cells): -0.05 | Log2 (PYR/DMSO) ([11]; protein H2AFX, HIST1H2AJ, HIST1H2AH, H2AFJ, HIST2H2AC, HIST1H2AC, HIST3H2A, HIST2H2AA3, HIST1H2AD, HIST1H2AG, HIST1H2AB, HIST1H2AA, HIST2H2AB, U3A cells): 0.19 | Log2 (PYR/DMSO) ([11]; protein HIST2H3A, HIST3H3, HIST1H3A, H3F3B, H3F3A, HIST2H3PS2, H3F3C, U3A cells): 0.22 | Log2 (PYR/DMSO) ([11]; protein HPCAL1, HPCA, soluble abundance after heat, U3A cells): 0.15 | Log2 (PYR/DMSO) ([11]; protein KHDRBS1, KHDRBS2, soluble abundance after heat, U3A cells): 0.14 | Log2 (PYR/DMSO), KIAA2012; SPEG ([11]; protein KIAA2012, SPEG, U3A, 10 μM, 2 h): 0.26 | Log2 (PYR/DMSO) ([11]; protein MOCS2, U3A cells): -0.04 | Log2 (PYR/DMSO) ([11]; protein POLR2J3, POLR2J, POLR2J2, U3A cells): -0.04 | Log2 (PYR/DMSO) ([11]; protein POM121C, POM121, POMZP3, soluble abundance after heat, U3A cells): 0.14 | Log2 (PYR/DMSO) ([11]; protein PPP1R2, PPP1R2P3, U3A cells): -0.04 | Log2 (PYR/DMSO), PRSS1; PRSS3P2; PRSS2 ([11]; protein PRSS1, PRSS3P2, PRSS2, U3A, 10 μM, 2 h): -0.20 | Log2 (PYR/DMSO), SLC25A5; SLC25A4; SLC25A6; SLC25A31 ([11]; protein SLC25A5, SLC25A4, SLC25A6, SLC25A31, U3A, 10 μM, 2 h): 0.31 | Log2 (PYR/DMSO) ([11]; protein UBE2Q1, UBE2Q2, U3A cells): 0.20 | Log2 (PYR/DMSO) [12]: 0.21 | Log2 (PYR/DMSO) [13]: -0.04 | Log2 (PYR/DMSO) [14]: 0.20 | Log2 (PYR/DMSO) [15]: -0.04 | Log2 (PYR/DMSO) [16]: 0.20 | Log2 (PYR/DMSO) [17]: 0.17 | Log2 (PYR/DMSO) [18]: 0.18 | Log2 (PYR/DMSO) [19]: 0.18 | Log2 (PYR/DMSO) [20]: 0.15 | Log2 (PYR/DMSO) [21]: 0.14 | Log2 (PYR/DMSO) [22]: 0.16 | Log2 (PYR/DMSO) [23]: 0.18 | Log2 (PYR/DMSO) [24]: 0.18 | Log2 (PYR/DMSO) [25]: 0.19 | Log2 (PYR/DMSO) [26]: -0.05 | Log2 (PYR/DMSO), ATP1B3 [27]: 0.27
